The record followed here is patent publication US9416126B2, “Compounds inhibiting leucine-rich repeat kinase enzyme activity” (Merck Sharp & Dohme Corp., priority 2013, dated 2016).

For orientation: IC50 means the concentration that inhibits the measured activity by half.

The target of the first test is LRRK2(G2019S mutation, GST-LRRK2(amino acids 970-2527)) (Homo sapiens (Human), UniProt Q5S007, G2019S). Nature of the test: LRRK2 Km ATP LanthaScreen Assay. It counts as biochemical. The note with it: Examples N1-N25. The procedure, abridged: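 TR-FRET: GST-LRRK2 970-2527 G2019S (2.5 nM solution) preincubated 30 min with compound (98 μM top, 1:2.15 dilutions), then 800 nM fluorescein-LRRKtide and 184 μM ATP solution added for 60 min at room temperature in Tris pH 8.5 buffer. Stopped with EDTA and Tb anti-phospho-LRRKtide antibody; IC50 is a mean of several tests.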
Chain of LRRK2(G2019S mutation, GST-LRRK2(amino acids 970-2527)) (Q5S007 970-2527 G2019S): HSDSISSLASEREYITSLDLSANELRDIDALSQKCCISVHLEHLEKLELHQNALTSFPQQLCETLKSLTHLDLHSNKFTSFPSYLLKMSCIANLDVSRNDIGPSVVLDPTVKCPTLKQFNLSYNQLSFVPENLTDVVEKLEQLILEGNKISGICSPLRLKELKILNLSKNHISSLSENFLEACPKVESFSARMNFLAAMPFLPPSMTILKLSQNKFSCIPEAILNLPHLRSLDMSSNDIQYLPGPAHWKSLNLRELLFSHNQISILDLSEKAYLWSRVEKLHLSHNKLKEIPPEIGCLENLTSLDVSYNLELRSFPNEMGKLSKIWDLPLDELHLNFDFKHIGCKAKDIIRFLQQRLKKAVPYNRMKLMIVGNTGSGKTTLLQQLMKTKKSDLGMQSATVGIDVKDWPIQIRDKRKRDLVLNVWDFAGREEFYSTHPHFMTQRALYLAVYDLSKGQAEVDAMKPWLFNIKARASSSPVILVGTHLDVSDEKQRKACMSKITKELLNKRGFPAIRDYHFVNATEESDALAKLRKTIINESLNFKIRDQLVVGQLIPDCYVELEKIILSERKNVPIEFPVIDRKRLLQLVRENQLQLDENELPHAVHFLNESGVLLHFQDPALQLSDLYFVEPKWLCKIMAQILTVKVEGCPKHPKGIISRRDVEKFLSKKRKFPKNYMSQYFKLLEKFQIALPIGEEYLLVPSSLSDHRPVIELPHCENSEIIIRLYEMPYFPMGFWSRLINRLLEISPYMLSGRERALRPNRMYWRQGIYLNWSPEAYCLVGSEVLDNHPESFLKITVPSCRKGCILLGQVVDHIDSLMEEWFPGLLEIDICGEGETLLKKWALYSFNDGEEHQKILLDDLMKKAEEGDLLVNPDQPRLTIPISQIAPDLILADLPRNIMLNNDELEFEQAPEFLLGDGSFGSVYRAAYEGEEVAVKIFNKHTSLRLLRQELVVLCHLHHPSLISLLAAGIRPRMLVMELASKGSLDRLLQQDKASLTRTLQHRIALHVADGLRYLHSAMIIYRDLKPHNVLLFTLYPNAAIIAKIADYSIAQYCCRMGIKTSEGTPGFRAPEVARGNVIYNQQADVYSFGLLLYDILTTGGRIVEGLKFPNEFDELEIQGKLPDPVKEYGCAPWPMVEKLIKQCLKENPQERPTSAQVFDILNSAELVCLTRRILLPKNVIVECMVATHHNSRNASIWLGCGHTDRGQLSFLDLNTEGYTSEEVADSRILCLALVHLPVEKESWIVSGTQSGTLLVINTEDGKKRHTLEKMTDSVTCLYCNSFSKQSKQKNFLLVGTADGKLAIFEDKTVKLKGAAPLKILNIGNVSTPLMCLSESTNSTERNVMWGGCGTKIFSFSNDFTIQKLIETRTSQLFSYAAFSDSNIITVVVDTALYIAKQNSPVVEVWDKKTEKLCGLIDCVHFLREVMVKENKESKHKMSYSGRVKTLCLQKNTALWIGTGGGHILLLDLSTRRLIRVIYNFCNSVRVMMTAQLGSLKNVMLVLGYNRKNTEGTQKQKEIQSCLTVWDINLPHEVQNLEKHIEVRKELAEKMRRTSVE
A general note: TR-FRET usually uses a lanthanide donor and a delayed reading to cut background.
`CO[C@H]1CN(c2cc(-c3n[nH]c4cc(F)c(OC(C)C)cc34)ncn2)C[C@@H]1O` [Example N17] gave an IC50 of 0.0077 µM.
In the case of `CC(C)Oc1cc2c(-c3cc(N4CCOC(C)(C)C4)ncn3)n[nH]c2cc1F` [Example N15], the IC50 worked out at 0.0062 µM.
Turning to `CC(C)Oc1cc2c(-c3cc(N4CCC(F)(F)C4)ncn3)n[nH]c2cc1F` [Example N8], half-maximal inhibition (IC50) was put at 0.0061 µM.
`CC(C)Oc1cc2c(-c3cc(N4CCOC(C(F)(F)F)C4)ncn3)n[nH]c2cc1F` (stereo not shown) [Example N3] returned an IC50 of 0.0266 µM.

Still in this test, the particulars now being: Examples O1-O23.
For `COC[C@H](C)Oc1ccc2[nH]nc(-c3cc(N4CCC(F)(F)CC4)ncn3)c2c1` [Example O19], the IC50 is 0.008 µM.
The molecule `COC[C@H](C)Oc1ccc2[nH]nc(-c3cc(N4[C@H](C)COC[C@@H]4C)ncn3)c2c1` [Example O15] had an IC50 of 0.0074 µM.
`COC[C@H](C)Oc1ccc2[nH]nc(-c3cc(N4CCOC(C)(C)C4)ncn3)c2c1` [Example O18] registered an IC50 of 0.0053 µM.
For the molecule `COC[C@H](C)Oc1ccc2[nH]nc(-c3cc(N4CC[C@@H](CF)C4)ncn3)c2c1` [Example O3], the IC50 is 0.0027 µM.
`COC[C@H](C)Oc1ccc2[nH]nc(-c3cc(N4C[C@H](OC)[C@@H](O)C4)ncn3)c2c1` [Example O21] came in with an IC50 of 0.0198 µM.

The test is the same for the next values; noted with them: Examples P1-P18.
In the case of `COc1cnc(-c2ccc3[nH]nc(-c4cc(N5CCOCC5)ncn4)c3c2)cn1` [Example P10], the half-inhibitory concentration (IC50) was found to be 0.272 µM.

The same test, now with this note: Examples Q1-Q20.
Molecule `C[C@@H]1CN(c2cc(-c3n[nH]c4ccc(-c5ccnc(C#N)c5)cc34)ncn2)C[C@H](C)O1` [Example Q11] returned an IC50 of 0.172 µM.

Staying with this test, now noted: Km ATP (184 μM ATP solution), G2019S LRRK2, mean IC50.
For the molecule `CN(C)[C@H]1CN(c2cc(-c3n[nH]c4ccc(-c5cnn(C)c5)cc34)ncn2)C[C@@H]1O` [Example M17], it took 0.0135 µM to reach half-maximal inhibition (IC50).
`COC[C@H](C)Oc1ccc2[nH]nc(-c3cc(N4CC[C@H](OC)C4)ncn3)c2c1` [Example H13] gave an IC50 of 0.00527 µM.
`CC(C)Cc1ccc2[nH]nc(-c3cc(N4CCOCC4)ncn3)c2c1` [V] gave an IC50 of 0.056 µM.
Turning to `CC(C)Oc1ccc2[nH]nc(-c3cc(N4C[C@H](N)C[C@@H]4C)ncn3)c2c1` [Example D52], the IC50 turned out to be 0.0111 µM.
In turn, `CC(C)Oc1ccc2[nH]nc(-c3cc(N4C[C@H](O)[C@@H](N)[C@@H]4C)ncn3)c2c1` [Example D55] yielded a half-inhibitory concentration (IC50) of 0.0144 µM.
Consider `CC(C)Oc1ccc2[nH]nc(-c3cc(N4CCN(C(=O)c5ccco5)CC4)ncn3)c2c1` [Example K2], for which half-maximal inhibition (IC50) required 0.0087 µM.
Same read-out and setting: the value for `CC(C)Oc1cc2c(-c3cc(N4C[C@H](O)[C@@H](O)[C@@H]4C)ncn3)n[nH]c2cc1F` [Example D57] was 0.0155 µM; that for `CCC(=O)N1CCN(c2cc(-c3n[nH]c4ccc(OC(C)C)cc34)ncn2)CC1` [Example D53] was 0.00426 µM.
For `COc1ccc2[nH]nc(-c3cc(N4CCN(S(C)(=O)=O)CC4)ncn3)c2c1` [Example E4], the IC50 was 0.0354 µM.
`COC[C@H](C)Oc1ccc2[nH]nc(-c3cc(N4CC[C@@H](OC)C4)ncn3)c2c1` [Example H12] came in with an IC50 of 0.0048 µM.
In turn, `CN1CCN(c2cc(-c3n[nH]c4ccc(-c5cnn(C)c5)cc34)ncn2)CC1=O` [Example A5] returned an IC50 of 0.00491 µM.
Same read-out and setting: to `COc1ccc2[nH]nc(-c3cc(N4CCO[C@@H](C)C4)ncn3)c2c1` [Example E13] belongs 0.0769 µM.
Take `CC(C)Oc1ccc2[nH]nc(-c3cc(N4CCN(C(C)C)CC4)ncn3)c2c1` [Example D17]: half-maximal inhibition (IC50) was put at 0.00768 µM.
`COCCOc1ccc2[nH]nc(-c3cc(N4CCN(C)C(=O)C4)ncn3)c2c1` [Example G7] returned an IC50 of 0.069 µM.
As for `CO[C@H]1CN(c2cc(-c3n[nH]c4ccc(OC(C)C)cc34)ncn2)C[C@@H]1O` [Example D1], the IC50 turned out to be 0.0099 µM.
On the same count and under the same terms, the value for `COC[C@@H](C)Oc1ccc2[nH]nc(-c3cc(N4CCO[C@H](C)C4)ncn3)c2c1` [Example H3] was 0.0355 µM.
As for `Cn1cc(-c2cc3c(-c4cc(N5CCC(F)(CO)CC5)ncn4)n[nH]c3cc2F)cn1` [Example L23], the IC50 was found to be 0.0153 µM.
In turn, `CC(C)Oc1ccc2[nH]nc(-c3cc(N4CCN(c5ncccn5)CC4)ncn3)c2c1` [Example K7] had an IC50 of 0.0118 µM.
In turn, `Cn1cc(-c2ccc3[nH]nc(-c4cc(N5CC[C@@H](CO)C5)ncn4)c3c2)cn1` [Example M7] returned an IC50 of 0.0029 µM.
Take `Cn1cc(-c2ccc3[nH]nc(-c4cc(N5CCC(n6cccn6)C5)ncn4)c3c2)cn1` (stereo not shown) [Example M22]: half-maximal inhibition (IC50) required 0.0036 µM.
On to `CC(C)Oc1ccc2[nH]nc(-c3cc(N4CCN(C(=O)C5CCCO5)CC4)ncn3)c2c1` (stereo not shown) [Example K6], for which the IC50 is 0.0581 µM.
As to `CCOc1ccc2[nH]nc(-c3cc(N4CCN(C5CC5)CC4)ncn3)c2c1` [Example F5], the IC50 was determined as 0.0167 µM.
In turn, `COCCOc1ccc2[nH]nc(-c3cc(N4CCO[C@@H](C)C4)ncn3)c2c1` [Example G11] registered an IC50 of 0.101 µM.
Same read-out and setting: to `CN1CCN(c2cc(-c3n[nH]c4cc(F)c(-c5cnn(C)c5)cc34)ncn2)CC1=O` [Example L9] belongs 0.0377 µM.
The molecule `Cn1cc(-c2ccc3[nH]nc(-c4cc(N5CCC(F)(F)C5)ncn4)c3c2)cn1` [Example M26] displayed an IC50 of 0.0037 µM.
Take `Cn1cc(-c2cc3c(-c4cc(N5CC[S+]([O-])CC5)ncn4)n[nH]c3cc2F)cn1` [Example L8]: it took 0.131 µM to reach half-maximal inhibition (IC50).
On the same count and under the same terms, to `CC(C)Oc1ccc2[nH]nc(-c3cc(N4CCC(n5ccnc5)C4)ncn3)c2c1` (stereo not shown) [Example K11] belongs 0.0113 µM; to `CC(C)Oc1ccc2[nH]nc(-c3cc(N4CCC(O)(C(F)(F)F)CC4)ncn3)c2c1` [Example K12], 0.0105 µM; to `COC(=O)N1CCN(c2cc(-c3n[nH]c4ccc(OC(C)C)cc34)ncn2)CC1` [Example K9], 0.0102 µM.
Turning to `CC(C)Oc1ccc2[nH]nc(-c3cc(N4CCN(C(C)C)C(=O)C4)ncn3)c2c1` [Example D29], half-maximal inhibition (IC50) was put at 0.00528 µM.
Still for that read-out and setting: to `COc1ccc2[nH]nc(-c3cc(N4CCN(C5CC5)CC4)ncn3)c2c1` [Example E9] belongs 0.0259 µM.
Consider `Cn1cc(-c2cc3c(-c4cc(N5CCC(F)(F)C5)ncn4)n[nH]c3cc2F)cn1` [Example L6], for which the IC50 is 0.0709 µM.
The molecule `CC(C)Oc1cc2c(-c3cc(N4C[C@H](F)[C@@H](F)C4)ncn3)n[nH]c2cc1F` [Example D35] had an IC50 of 0.00478 µM.
On to `CC(C)Oc1ccc2[nH]nc(-c3cc(N4CC(F)(F)C4)ncn3)c2c1` [Example J18], for which it took 0.0243 µM to reach half-maximal inhibition (IC50).
`CC(C)Oc1cc2c(-c3cc(N4C[C@H](N)C[C@@H]4C)ncn3)n[nH]c2cc1F` [Example D60]: it took 0.0076 µM to reach half-maximal inhibition (IC50).
Take `Cn1cc(-c2cc3c(-c4cc(N5CCCC6(CCO6)C5)ncn4)n[nH]c3cc2F)cn1` (stereo not shown) [Example L15]: the IC50 was determined as 0.398 µM.
On the same count and under the same terms, to `Cn1cc(-c2cc3c(-c4cc(N5CC[C@H](CO)C5)ncn4)n[nH]c3cc2F)cn1` [Example L5] belongs 0.037 µM; to `CC(C)Oc1ccc2[nH]nc(-c3cc(N4C[C@H](F)[C@@H](F)C4)ncn3)c2c1` [Example J10], 0.0111 µM.
`CO[C@H]1CCN(c2cc(-c3n[nH]c4ccc(OC(C)C)cc34)ncn2)C1` [Example D31]: half-maximal inhibition (IC50) required 0.00879 µM.
Molecule `CC(C)Oc1ccc2[nH]nc(-c3cc(N4CC[C@H](N)C4)ncn3)c2c1` [Example D44] yielded an IC50 of 0.00668 µM.
`CCOc1ccc2[nH]nc(-c3cc(N4C[C@H](F)[C@@H](F)C4)ncn3)c2c1` [Example F3]: the IC50 stood at 0.0266 µM.
The molecule `COCCOC1CCN(c2cc(-c3n[nH]c4ccc(-c5cnn(C)c5)cc34)ncn2)CC1` [Example A9] displayed an IC50 of 0.00187 µM.
In turn, `CC(=O)N1CCN(c2cc(-c3n[nH]c4ccc(-c5cnn(C)c5)cc34)ncn2)CC1` [Example A13] showed an IC50 of 0.00315 µM.
Molecule `CC(C)Oc1ccc2[nH]nc(-c3cc(N4CC(n5cccn5)C4)ncn3)c2c1` [Example J12] showed an IC50 of 0.0226 µM.
For `CC(C)Oc1cc2c(-c3cc(N4CCN(c5cnn(C)c5)CC4)ncn3)n[nH]c2cc1F` [Example D56], the IC50 turned out to be 0.00219 µM.
On to `CC(C)Oc1ccc2[nH]nc(-c3cc(N4CCc5nc(C6CC6)oc5C4)ncn3)c2c1` [Example J20], for which the IC50 worked out at 0.043 µM.
`CC(C)Oc1ccc2[nH]nc(-c3cc(N4CCCN(S(C)(=O)=O)CC4)ncn3)c2c1` [Example J11] had an IC50 of 0.0513 µM.
The molecule `Cn1cc(-c2ccc3[nH]nc(-c4cc(N5C[C@H](F)[C@@H](F)C5)ncn4)c3c2)cn1` [Example M13] gave an IC50 of 0.0038 µM.
Consider `CCS(=O)(=O)N1CCN(c2cc(-c3n[nH]c4cc(F)c(OC(C)C)cc34)ncn2)CC1` [Example D68], for which the IC50 came to 0.00224 µM.
Same read-out and setting: to `Cn1cc(-c2cc3c(-c4cc(N5CCn6ncnc6C5)ncn4)n[nH]c3cc2F)cn1` [Example L1] belongs 0.0639 µM.
As for `CC(C)=Cc1ccc2[nH]nc(-c3cc(N4CCN(C)CC4)ncn3)c2c1` [Example S3], 0.0329 µM corresponded to half-maximal inhibition (IC50).

Staying with this test, now noted: Table U.
As to `c1nc(-c2n[nH]c3ccc(-c4ccsc4)cc23)cc(N2CCOCC2)n1` [Example U9], inhibition was half-maximal at 0.0364 µM (IC50).
Molecule `CC(C)N1CCN(c2cc(-c3n[nH]c4ccc(-c5cccs5)cc34)ncn2)CC1` [Example U21] gave an IC50 of 0.0615 µM.
The molecule `Cc1ncc(-c2ccc3[nH]nc(-c4cc(N5CCOCC5)ncn4)c3c2)s1` [Example U10] came in with an IC50 of 0.0022 µM.
Molecule `Cc1n[nH]c(C)c1-c1ccc2[nH]nc(-c3cc(N4CCO[C@H](C)C4)ncn3)c2c1` [Example U29] displayed an IC50 of 0.0032 µM.
Take `Clc1cc(-c2ccc3[nH]nc(-c4cc(N5CCOCC5)ncn4)c3c2)ccn1` [Example U18]: the IC50 worked out at 0.267 µM.
As for `CC1(C)CC(=O)C=C(c2ccc3[nH]nc(-c4cc(N5CCC(F)(F)CC5)ncn4)c3c2)C1` [Example U5], half-maximal inhibition (IC50) required 0.00708 µM.
`FC1(F)CCN(c2cc(-c3n[nH]c4ccc(C5=CCNCC5)cc34)ncn2)CC1` [Example U3] came in with an IC50 of 0.12 µM.
On the same count and under the same terms, to `COc1ccncc1-c1ccc2[nH]nc(-c3cc(N4C[C@@H](C)O[C@@H](C)C4)ncn3)c2c1` [Example U26] belongs 0.00075 µM.
